Experimental findings from patent US20220163532A1, “NUCLEAR-DERIVED EXOSOMES AND METHODS OF USE THEREOF” (Board of Regents, The University of Texas System, priority 2019, published 2022) are described below.

The test concerns OVCAR-5 and OVCAR-8 cells. The experiment in a line: MN quantification in ovarian cancer cells treated with genotoxic drugs (IF, Lamin A/C). Conditions: topotecan 10 nM or olaparib 20 μM, vs DMSO. It is filed as cell-based, human. The protocol: IF experiments and MN quantification. Cells were plated at a density of 5×10^4 cells on sterile, 0.17-mm-thick coverslips (12-548-A, Thermo Fisher Scientific) placed at the bottom of six-well plates. The next day, cells were treated for 24 hours with either vehicle control dimethyl sulfoxide (DMSO; 1:1000 dilution; D2650, Sigma-Aldrich), 20 μM olaparib (O-9201, LC Laboratories), or 10 nM topotecan (T2705-50MG, Sigma-Aldrich). After 24 hours, the cells were washed with PBS and refed with the appropriate cell culture medium to grow for another 48 hours, for a total time of 72 hours after initial plating on the coverslips.
The drug-treated cells were first washed three times with PBS, fixed with 4% paraformaldehyde (PFA; 50-980-487, Thermo Fisher Scientific) diluted in PBS, and incubated at RT for 15 min with light rocking. […] Last, cells on coverslips were then washed four times with PBS and mounted on slides using ProLong Diamond Antifade Mountant (P36961, Thermo Fisher Scientific) and imaged with a Leica fluorescence microscope (Leica DM4000 M LED; Leica Microsystems) or an Andor Revolution XDi WD Spinning Disk Confocal microscope. For MN quantification, the number of MN in each 40× field was counted using 10 fields per sample. […]

For the compound `CC[C@@]1(O)C(=O)OCc2c1cc1n(c2=O)Cc2cc3c(CN(C)C)c(O)ccc3nc2-1` [topotecan], the “number of MN” value was “increased significantly”.
